According to ChEMBL document CHEMBL1150067, “Anti-tumor-promoting activities of afromosin and soyasaponin I isolated from Wistaria brachybotrys” (1992):

Assays:
Type in all cases: functional
[1] = tested on: Mus musculus; assay: Inhibition of DMBA-induced/TPA-promoted carcinogenesis in mouse assessed as number of skin papillomas per mouse at 85 nmol administered twice weekly after 1 week of initiation measured after 20 weeks by two stage carcinogenesis test; design: scale not given: the % may be the effect or the level left
[2] = species on record: Mus musculus; assay: Inhibition of 4NQO-induced carcinogenesis in mouse assessed as total number of tumors at 1.25 mg after 25 weeks by two stage carcinogenesis test
[3] = species on record: Mus musculus; assay: Inhibition of 4NQO-induced carcinogenesis in mouse assessed as number of tumors per mouse at 1.25 mg after 25 weeks by two stage carcinogenesis test
[4] = species on record: Mus musculus; assay: Inhibition of 4NQO-induced carcinogenesis in mouse assessed as reduction of mouse with tumor at 1.25 mg after 25 weeks by two stage carcinogenesis test; design: scale not given: the % may be the effect or the level left

SMILES	Activity [1]	Activity [2]	Activity [3]	Activity [4]
COc1ccc(-c2coc3cc(O)c(OC)cc3c2=O)cc1 [CASTANIN]	40%	14	0.93	60%
C[C@@H]1O[C@@H](O[C@H]2[C@H](O[C@H]3[C@H](O[C@H]4CC[C@@]5(C)[C@@H](CC[C@]6(C)[C@@H]5CC=C5[C@@H]7CC(C)(C)C[C@@H](O)[C@]7(C)CC[C@]56C)[C@@]4(C)CO)O[C@H](C(=O)O)[C@@H](O)[C@@H]3O)O[C@H](CO)[C@H](O)[C@@H]2O)[C@H](O)[C@H](O)[C@H]1O [SOYASAPONIN I]	40%	–	–	–
